# Experimental data reported in patent US20140309137A1, “GENE EXPRESSION PROFILES ASSOCIATED WITH LEAN PHENOTYPE AND USES THEREOF” (NESTEC SA, priority 2008, published 2014).
# Assays:
# [1] = Body composition and body fat analysis after CLA, high protein diet or exercise treatment; type: in vivo, Sprague Dawley rats; conditions: rats
# Excerpt: (§1) Four-week old male Sprague Dawley rats were allowed to acclimate for two weeks on a control diet comprising AIN-93M (American Institute of Nutrition purified diet formula for maintenance of mature rodents). Rats were divided into four groups of 12. Group 1 was fed the control diet supplemented with CLA (Table 1). Group 2 was fed a modified diet increased in protein and decreased in carbohydrate (Table 1). Group 3 was fed the control diet, and was given the opportunity to engage in supplemental exercise. Specifically, a running wheel was placed in the cage of each rat in group 3, and daily use of the wheel was monitored by recording each turn of the wheel using a sensor connected to a computer. Group 4 was fed the control diet (Table 1).
# (§2) Measurements were taken at 7 and 60 days after initiation of the feeding or exercise protocols. At the completion of the 60-day feeding protocol, all animals were sacrificed and analyses were performed.
# Body composition analyses were performed on the test animals.
# [2] = Biochemical analyses of blood (fasting glucose, glucagon, insulin); type: in vivo, Sprague Dawley rats; conditions: for Fasting blood glucagon / Fasting blood glucose / Fasting blood insulin: rats
# Excerpt: as §1, §2
# [3] = after 60 days, compared with the control diet and the exercise treatment
substance,measurement,setting,value
conjugated linoleic acid [CLA],Body fat,"[1]; 60 days, compared with the Control group",reduced body fat
same,Retroperitoneal fat,[1]; following 60 days of treatment,10.07 g
same,Total fat pad,[1]; following 60 days of treatment,31.80 g
same,Blood glucose level,[2]; [3],reduced blood glucose level
same,Blood insulin,[2]; [3],reduced blood insulin
same,Fasting blood glucagon,[2]; Day 7,111.65 pg/mL
same,Fasting blood glucose,[2]; Day 7,10.53 mmol/L
same,Fasting blood insulin,[2]; Day 7,233.58 pmol/L
same,Fasting blood glucagon,[2]; Day 60,120.77 pg/mL
same,Fasting blood glucose,[2]; Day 60,11.08 mmol/L
same,Fasting blood insulin,[2]; Day 60,172.66 pmol/L
